Data reported in DBAASP.
In brackets after ≈: the same amount, converted by molar mass.

Legend:
Assay in all cases: ≥ marks a high value that may be exact or a test limit, other limits are often not marked, values filed in µg/mL are converted to µM
[1] = system: Candida albicans
[2] = system: Escherichia coli
[3] = system: Staphylococcus aureus
[4] = system: Bacillus subtilis
[5] = system: Bacillus cereus
[6] = system: Pseudomonas aeruginosa ATCC 27853
[7] = system: Escherichia coli ATCC 25922
[8] = system: Acinetobacter baumannii ATCC 19606
[9] = system: Staphylococcus aureus ATCC 25923

CC[C@H](C)[C@H](NC(=O)[C@H](CCCN=C(N)N)NC(=O)[C@@H](NC(=O)[C@@H]1CCCN1C(=O)[C@H](CCCN=C(N)N)NC(=O)[C@@H](NC(=O)[C@@H]1CCCN1C(=O)[C@H](CC(C)C)NC(=O)[C@H](CC(C)C)NC(=O)CNC(=O)[C@H](Cc1cnc[nH]1)NC(=O)[C@@H]1CCCN1C(=O)CNC(=O)[C@H](Cc1ccccc1)NC(=O)[C@H](CC(=O)O)NC(=O)[C@H](Cc1c[nH]c2ccccc12)NC(=O)[C@H](C)NC(=O)[C@@H](NC(=O)[C@H](C)N)[C@@H](C)O)[C@@H](C)CC)[C@@H](C)CC)C(=O)N[C@@H](CCCN=C(N)N)C(=O)N1CCC[C@H]1C(=O)N[C@@H](CC(C)C)C(=O)N[C@@H](CS)C(=O)NCC(=O)N[C@@H](CCCCN)C(=O)N[C@@H](CC(=O)O)C(=O)N[C@@H](CCCCN)C(=O)N[C@@H](CO)C(=O)O [ATAWDFGPHGLLPIRPIRIRPLCGKDKS]
MIC [1]: 6.02 µM (≈ 18.8 µg/mL) | MIC [2]: 3.01 µM (≈ 9.37 µg/mL) | MIC [3]: 1.5 µM (≈ 4.68 µg/mL) | MIC [4]: 24.1 µM (≈ 75 µg/mL)

CC(C)C[C@H](NC(=O)[C@@H](N)Cc1ccccc1)C(=O)NCC(=O)NCC(=O)N[C@H](C(=O)N[C@@H](Cc1ccccc1)C(=O)N[C@@H](CCCCN)C(=O)NCC(=O)N[C@@H](C)C(=O)N[C@@H](CO)C(=O)N[C@@H](CCCCN)C(=O)N[C@H](C(=O)N[C@@H](Cc1ccccc1)C(=O)N1CCC[C@H]1C(=O)N[C@@H](C)C(=O)N[C@H](C(=O)N[C@@H](Cc1ccccc1)C(=O)NCC(=O)N[C@@H](CCCCN)C(=O)N[C@H](C(=O)O)C(C)C)C(C)C)C(C)C)C(C)C [FLGGVFKGASKVFPAVFGKV]
MIC [2]: > 125 µM | MIC [3]: > 125 µM | MIC [5]: ≥ 125 µM

CC(C)C[C@H](NC(=O)[C@@H](N)Cc1ccccc1)C(=O)NCC(=O)N[C@@H](CCCCN)C(=O)N[C@H](C(=O)N[C@@H](Cc1ccccc1)C(=O)N[C@@H](CCCCN)C(=O)NCC(=O)N[C@@H](C)C(=O)N[C@H](C(=O)N[C@@H](CCCCN)C(=O)N[C@H](C(=O)N[C@@H](Cc1ccccc1)C(=O)N1CCC[C@H]1C(=O)N[C@@H](C)C(=O)N[C@H](C(=O)N[C@@H](Cc1ccccc1)C(=O)NCC(=O)N[C@@H](CCCCN)C(=O)N[C@H](C(=O)O)C(C)C)C(C)C)C(C)C)C(C)C)C(C)C [FLGKVFKGAVKVFPAVFGKV]
MIC [2]: 59.9 µM (≈ 128 µg/mL) | MIC [3]: > 59.9 µM | MIC [5]: ≥ 59.9 µM

CC(C)C[C@H](NC(=O)[C@H](CCCCN)NC(=O)[C@H](Cc1ccccc1)NC(=O)[C@@H](NC(=O)[C@H](CCCCN)NC(=O)CNC(=O)[C@H](CC(C)C)NC(=O)[C@@H](N)Cc1ccccc1)C(C)C)C(=O)N[C@@H](C)C(=O)N[C@@H](CO)C(=O)N[C@@H](CCCCN)C(=O)N[C@H](C(=O)N[C@@H](Cc1ccccc1)C(=O)N1CCC[C@H]1C(=O)N[C@@H](C)C(=O)N[C@H](C(=O)N[C@@H](Cc1ccccc1)C(=O)N[C@@H](CCCCN)C(=O)N[C@@H](CCCCN)C(=O)N[C@H](C(=O)O)C(C)C)C(C)C)C(C)C [FLGKVFKLASKVFPAVFKKV]
MIC [2]: 7.1 µM (≈ 16 µg/mL) | MIC [3]: 56.8 µM (≈ 128 µg/mL) | MIC [5]: ≥ 56.8 µM

CC(C)C[C@H](NC(=O)[C@@H](N)Cc1ccccc1)C(=O)NCC(=O)N[C@H](C(=O)N[C@H](C(=O)N[C@@H](Cc1ccccc1)C(=O)N[C@@H](CCCCN)C(=O)N[C@@H](CCCCN)C(=O)N[C@@H](C)C(=O)N[C@@H](CO)C(=O)N[C@@H](CCCCN)C(=O)N[C@H](C(=O)N[C@@H](Cc1ccccc1)C(=O)N1CCC[C@H]1C(=O)N[C@@H](C)C(=O)N[C@H](C(=O)N[C@@H](Cc1ccccc1)C(=O)NCC(=O)N[C@@H](CCCCN)C(=O)N[C@H](C(=O)O)C(C)C)C(C)C)C(C)C)C(C)C)C(C)C [FLGVVFKKASKVFPAVFGKV]
MIC [2]: 118 µM (≈ 256 µg/mL) | MIC [3]: > 118 µM | MIC [5]: ≥ 118 µM

CC(C)C[C@H](NC(=O)[C@H](CCCCN)NC(=O)[C@H](Cc1ccccc1)NC(=O)[C@@H](NC(=O)[C@@H](NC(=O)CNC(=O)[C@H](CC(C)C)NC(=O)[C@@H](N)Cc1ccccc1)C(C)C)C(C)C)C(=O)N[C@@H](C)C(=O)N[C@@H](CO)C(=O)N[C@@H](CCCCN)C(=O)N[C@H](C(=O)N[C@H](C(=O)N1CCC[C@H]1C(=O)N[C@@H](C)C(=O)N[C@H](C(=O)N[C@@H](Cc1ccccc1)C(=O)NCC(=O)N[C@@H](CCCCN)C(=O)N[C@H](C(=O)O)C(C)C)C(C)C)C(C)C)C(C)C [FLGVVFKLASKVVPAVFGKV]
MIC [2]: 122 µM (≈ 256 µg/mL) | MIC [3]: 7.6 µM (≈ 16 µg/mL) | MIC [5]: 30.4 µM (≈ 64 µg/mL)

CC(C)C[C@H](NC(=O)[C@H](CC(C)C)NC(=O)[C@H](CCCCN)NC(=O)[C@H](CCCCN)NC(=O)[C@H](CC(C)C)NC(=O)[C@H](CC(=O)O)NC(=O)[C@H](CCCCN)NC(=O)[C@H](CC(C)C)NC(=O)[C@@H](N)Cc1ccccc1)C(N)=O [FLKDLKKLL]
MIC [6]: 14.3 µM (≈ 16 µg/mL) | MIC [7]: > 115 µM | MIC [8]: > 115 µM | MIC [9]: > 115 µM

CC(C)C[C@H](NC(=O)CN)C(=O)N[C@@H](Cc1ccccc1)C(=O)NCC(=O)N[C@@H](CCCCN)C(=O)N[C@@H](CO)C(=O)N[C@@H](CO)C(=O)N[C@H](C(=O)N[C@@H](Cc1c[nH]c2ccccc12)C(=O)NCC(=O)N[C@@H](CCCN=C(N)N)C(=O)N[C@@H](CCCCN)C(=O)N[C@@H](Cc1ccc(O)cc1)C(=O)N[C@@H](Cc1ccc(O)cc1)C(=O)N[C@H](C(=O)N[C@@H](CC(=O)O)C(=O)N[C@@H](CC(C)C)C(=O)N[C@@H](C)C(=O)NCC(=O)N[C@@H](CS)C(=O)N[C@@H](C)C(=O)N[C@@H](CCCCN)C(=O)N[C@@H](C)C(=O)O)C(C)C)C(C)C [GLFGKSSVWGRKYYVDLAGCAKA]
MIC [1]: 1.27 µM (≈ 3.15 µg/mL) | MIC [2]: 5.09 µM (≈ 12.6 µg/mL) | MIC [3]: 2.54 µM (≈ 6.3 µg/mL) | MIC [4]: 2.54 µM (≈ 6.3 µg/mL)

CC[C@H](C)[C@H](N)C(=O)N[C@@H](C)C(=O)N[C@@H](CO)C(=O)N[C@@H](C)C(=O)N[C@H](C(=O)N1CCC[C@H]1C(=O)N[C@H](C(=O)N[C@@H](CS)C(=O)N[C@H](C(=O)N[C@@H](CCCCN)C(=O)NCC(=O)N[C@@H](CCCCN)C(=O)N[C@H](C(=O)N[C@@H](CO)C(=O)N[C@@H](CCCCN)C(=O)N[C@@H](CO)C(=O)N[C@@H](Cc1ccc(O)cc1)C(=O)N[C@H](C(=O)N[C@@H](CO)C(=O)N[C@H](C(=O)O)C(C)C)[C@@H](C)CC)[C@@H](C)CC)C(C)C)C(C)C)C(C)C [IASAVPVCVKGKISKSYISV]
MIC [2]: > 125 µM | MIC [5]: ≥ 125 µM

CC(C)C[C@H](NC(=O)[C@H](CO)NC(=O)[C@@H]1CCCN1)C(=O)N[C@@H](CC(C)C)C(=O)N[C@@H](Cc1ccc(O)cc1)C(=O)N[C@@H](CCCCN)C(=O)N[C@@H](C)C(=O)N[C@@H](CCCCN)C(=O)N[C@@H](C)C(=O)N[C@H](C(=O)N[C@@H](Cc1ccccc1)C(=O)N[C@@H](CS)C(=O)N[C@@H](CCCCN)C(=O)N1CCC[C@H]1C(=O)N[C@@H](CO)C(=O)N[C@@H](C)C(=O)N[C@H](C(=O)N[C@@H](C)C(=O)N[C@H](C(=O)N[C@@H](Cc1ccccc1)C(=O)O)C(C)C)C(C)C)C(C)C [PSLLYKAKAVFCKPSAVAVF]
MIC [2]: > 59.8 µM | MIC [5]: ≥ 59.8 µM

CC(C)C[C@H](NC(=O)[C@H](CCC(=O)O)NC(=O)[C@H](Cc1ccccc1)NC(=O)[C@H](CCC(=O)O)NC(=O)[C@H](C)NC(=O)[C@H](CCC(=O)O)NC(=O)[C@H](Cc1ccccc1)NC(=O)[C@H](CC(=O)O)NC(=O)[C@@H](NC(=O)[C@H](CC(=O)O)NC(=O)[C@H](CO)NC(=O)[C@H](CCCCN)NC(=O)[C@H](CCCN=C(N)N)NC(=O)[C@H](CCCCN)NC(=O)[C@@H](N)CCCN=C(N)N)C(C)C)C(=O)N[C@@H](Cc1ccccc1)C(=O)N[C@@H](CCC(=O)O)C(=O)N[C@@H](CC(=O)O)C(=O)N[C@@H](CC(=O)O)C(=O)N[C@@H](CC(=O)O)C(=O)O [RKRKSDVDFEAEFELFEDDD]
MIC [2]: > 103 µM | MIC [5]: ≥ 103 µM

CC[C@H](C)[C@H](NC(=O)[C@H](CCCCN)NC(=O)[C@H](CS)NC(=O)[C@H](C)NC(=O)[C@@H](NC(=O)[C@H](Cc1ccccc1)NC(=O)CNC(=O)[C@H](CC(C)C)NC(=O)CNC(=O)[C@@H](NC(=O)[C@H](CCCCN)NC(=O)CNC(=O)[C@H](CC(C)C)NC(=O)[C@H](CC(N)=O)NC(=O)[C@H](CCCCN)NC(=O)[C@H](CC(C)C)NC(=O)[C@@H](NC(=O)[C@H](CO)NC(=O)[C@H](CC(C)C)NC(=O)[C@H](CCSC)NC(=O)[C@@H](N)CO)C(C)C)C(C)C)C(C)C)C(=O)N[C@@H](CC(N)=O)C(=O)N[C@@H](CCCCN)C(=O)N[C@@H](CCCCN)C(=O)N[C@@H](CS)C(=O)O [SMLSVLKNLGKVGLGFVACKINKKC]
MIC [1]: 40 µM (≈ 106 µg/mL) | MIC [2]: 10 µM (≈ 26.5 µg/mL) | MIC [3]: 40 µM (≈ 106 µg/mL)

CC[C@H](C)[C@H](NC(=O)[C@H](CCCCN)NC(=O)[C@H](CS)NC(=O)[C@H](CCCCN)NC(=O)[C@@H](NC(=O)[C@H](Cc1ccccc1)NC(=O)CNC(=O)[C@H](CC(C)C)NC(=O)CNC(=O)[C@@H](NC(=O)[C@H](CCCCN)NC(=O)CNC(=O)[C@H](CC(C)C)NC(=O)[C@H](CC(N)=O)NC(=O)[C@H](CCCCN)NC(=O)[C@H](CC(C)C)NC(=O)[C@@H](NC(=O)[C@H](CO)NC(=O)[C@H](CC(C)C)NC(=O)[C@H](CCSC)NC(=O)[C@@H](N)CO)C(C)C)C(C)C)C(C)C)C(=O)N[C@@H](CC(N)=O)C(=O)N[C@@H](CCCCN)C(=O)N[C@@H](CCC(N)=O)C(=O)N[C@@H](CS)C(=O)O [SMLSVLKNLGKVGLGFVKCKINKQC]
MIC [1]: 20 µM (≈ 54.2 µg/mL) | MIC [2]: 10 µM (≈ 27.1 µg/mL) | MIC [3]: 20 µM (≈ 54.2 µg/mL)

CC[C@H](C)[C@H](NC(=O)[C@H](C)NC(=O)[C@H](CS)NC(=O)[C@H](Cc1ccc(O)cc1)NC(=O)[C@@H](NC(=O)[C@H](CO)NC(=O)[C@@H]1CCCN1C(=O)[C@@H](NC(=O)[C@@H](NC(=O)[C@H](CCCCN)NC(=O)[C@H](CO)NC(=O)[C@H](C)NC(=O)[C@@H](NC(=O)[C@H](CCCCN)NC(=O)CNC(=O)[C@@H](NC(=O)[C@@H](NC(=O)[C@@H](N)CO)C(C)C)[C@@H](C)CC)[C@@H](C)CC)C(C)C)C(C)C)C(C)C)C(=O)N[C@@H](CO)C(=O)N[C@@H](CCCCN)C(=O)O [SVIGKIASKVVPSVYCAISK]
MIC [2]: > 125 µM | MIC [5]: ≥ 125 µM
